pKi: −log10 of the molar value. Where “and” joins values, the source holds several entries; their conditions need not be identical. Identical values can stand only once. Square brackets hold non-standard residues; d marks the D form. Peptide text beside a SMILES is read from it. * marks the point of attachment. Tyr(Nα,Nα-allyl2) = C=CCN(CC=C)[C@@H](Cc1ccc(O)cc1)C(=O)*; Tic = O=C(O)[C@@H]1Cc2ccccc2CN1; Aib = CC(C)(N)C(=O)O

We go through two compounds from BindingDB's records for doi:10.1124/jpet.301.2.661 (University of Arkansas, 2002).

The target of the test is Delta-type opioid receptor (Homo sapiens, UniProt P41143).
Sequence of Delta-type opioid receptor (P41143 whole entry): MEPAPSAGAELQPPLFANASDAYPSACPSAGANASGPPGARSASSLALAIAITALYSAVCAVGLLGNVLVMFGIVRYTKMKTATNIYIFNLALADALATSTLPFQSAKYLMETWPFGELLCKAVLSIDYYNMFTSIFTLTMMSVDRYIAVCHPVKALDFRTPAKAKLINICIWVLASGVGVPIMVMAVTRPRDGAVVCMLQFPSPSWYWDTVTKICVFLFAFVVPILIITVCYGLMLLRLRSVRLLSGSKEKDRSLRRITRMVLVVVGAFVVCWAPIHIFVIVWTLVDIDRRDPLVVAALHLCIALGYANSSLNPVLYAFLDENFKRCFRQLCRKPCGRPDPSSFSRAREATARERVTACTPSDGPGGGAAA

As a reminder, the pKi is the Ki on a negative log10 scale, so that one unit is a factor of ten. Read a low pKi as a high Ki. For `C=CCN(CC=C)[C@@H](Cc1ccc(O)cc1)C(=O)NC(C)(C)C(=O)NC(C)(C)C(=O)N[C@@H](Cc1ccccc1)C(=O)N[C@@H](CC(C)C)C(=O)O` [NSC_107691] ({Tyr(Nα,Nα-allyl2)}-[Aib][Aib]FL-OH), the pKi was 6.52.

Regarding `N[C@@H](Cc1ccc(O)cc1)C(=O)N1Cc2ccccc2C[C@H]1C(=O)N[C@@H](Cc1ccccc1)C(=O)N[C@@H](Cc1ccccc1)C(=O)O` [TIPP] (H-Y[Tic]FF-OH), the pKi is 8.24 and 8.52.
